Experimental data: article PMC10176470, “Engaging a Non-catalytic Cysteine Residue Drives Potent and Selective Inhibition of Caspase-6” (Journal of the American Chemical Society, 2023)

Legend:
Assay type in all cases: cell-based
[1] = molecular target: proteins of HEK293T cells transiently overexpressing caspase-6 (Homo sapiens, UniProt P07437); settings: protein TUBB (P07437)
[2] = molecular target: proteins of HEK293T cells transiently overexpressing caspase-6 (Homo sapiens, UniProt P10599); settings: exp_ref Probe; protein TXN (P10599); analysis C6
Chain of proteins of HEK293T cells transiently overexpressing caspase-6 (Homo sapiens, UniProt P10599) (P10599 whole entry): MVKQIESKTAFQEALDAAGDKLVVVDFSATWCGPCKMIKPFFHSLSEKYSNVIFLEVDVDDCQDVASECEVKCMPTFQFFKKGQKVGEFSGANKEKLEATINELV

[3] = molecular target: T1, proteins of HEK293T cells transiently overexpressing caspase-6 (Homo sapiens, UniProt P11498)
T1 sequence (P11498 21-1178): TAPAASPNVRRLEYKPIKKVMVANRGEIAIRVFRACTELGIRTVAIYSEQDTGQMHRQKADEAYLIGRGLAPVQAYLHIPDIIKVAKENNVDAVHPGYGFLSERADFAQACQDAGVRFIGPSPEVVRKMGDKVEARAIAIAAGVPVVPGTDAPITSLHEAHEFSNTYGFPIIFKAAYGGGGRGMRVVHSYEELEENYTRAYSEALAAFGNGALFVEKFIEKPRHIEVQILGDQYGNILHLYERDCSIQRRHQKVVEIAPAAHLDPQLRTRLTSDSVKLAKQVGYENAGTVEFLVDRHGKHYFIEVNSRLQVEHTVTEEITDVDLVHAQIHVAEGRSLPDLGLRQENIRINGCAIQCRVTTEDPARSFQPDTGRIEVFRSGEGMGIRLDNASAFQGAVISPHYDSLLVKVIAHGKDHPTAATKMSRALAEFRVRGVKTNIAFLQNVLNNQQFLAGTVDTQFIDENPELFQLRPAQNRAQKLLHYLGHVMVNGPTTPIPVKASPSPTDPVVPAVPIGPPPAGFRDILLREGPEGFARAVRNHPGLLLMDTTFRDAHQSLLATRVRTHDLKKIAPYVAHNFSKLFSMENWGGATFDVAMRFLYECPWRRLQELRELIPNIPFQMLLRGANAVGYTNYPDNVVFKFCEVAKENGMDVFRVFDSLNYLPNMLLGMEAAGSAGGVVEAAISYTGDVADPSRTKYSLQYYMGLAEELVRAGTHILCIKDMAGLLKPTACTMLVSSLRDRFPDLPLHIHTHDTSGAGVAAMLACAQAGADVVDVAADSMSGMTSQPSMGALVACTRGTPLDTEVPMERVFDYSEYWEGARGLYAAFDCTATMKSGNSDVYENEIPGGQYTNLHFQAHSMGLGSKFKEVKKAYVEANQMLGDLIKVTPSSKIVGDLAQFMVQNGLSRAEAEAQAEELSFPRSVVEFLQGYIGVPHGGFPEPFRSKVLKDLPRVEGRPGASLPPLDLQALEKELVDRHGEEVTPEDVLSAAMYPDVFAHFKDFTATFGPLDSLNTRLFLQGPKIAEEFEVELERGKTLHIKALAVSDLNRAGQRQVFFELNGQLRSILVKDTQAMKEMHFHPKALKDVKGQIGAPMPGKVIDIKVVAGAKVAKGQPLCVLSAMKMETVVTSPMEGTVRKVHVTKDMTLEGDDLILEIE

[4] = molecular target: proteins of HEK293T cells transiently overexpressing caspase-6 (Homo sapiens, UniProt P13797); settings: exp_ref Probe; protein PLS3 (P13797); analysis C6
Chain of proteins of HEK293T cells transiently overexpressing caspase-6 (Homo sapiens, UniProt P13797) (P13797 whole entry): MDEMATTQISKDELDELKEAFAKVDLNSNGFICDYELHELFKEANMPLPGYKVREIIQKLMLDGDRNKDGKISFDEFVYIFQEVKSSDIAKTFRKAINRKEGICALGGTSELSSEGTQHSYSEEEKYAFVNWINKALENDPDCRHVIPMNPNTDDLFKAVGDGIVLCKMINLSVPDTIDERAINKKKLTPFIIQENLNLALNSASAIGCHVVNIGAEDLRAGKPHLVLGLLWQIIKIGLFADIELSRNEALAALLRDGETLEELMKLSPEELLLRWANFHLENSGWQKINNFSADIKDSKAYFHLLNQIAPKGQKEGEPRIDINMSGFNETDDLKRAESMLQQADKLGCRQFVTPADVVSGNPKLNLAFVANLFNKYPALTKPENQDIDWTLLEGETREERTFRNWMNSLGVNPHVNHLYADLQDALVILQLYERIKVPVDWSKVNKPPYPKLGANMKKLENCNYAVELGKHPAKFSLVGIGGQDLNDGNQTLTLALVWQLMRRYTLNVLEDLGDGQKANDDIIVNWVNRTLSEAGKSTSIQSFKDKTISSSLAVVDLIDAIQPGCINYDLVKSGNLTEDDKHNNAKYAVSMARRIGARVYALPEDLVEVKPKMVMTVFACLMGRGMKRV

[5] = molecular target: proteins of HEK293T cells transiently overexpressing caspase-6 (Homo sapiens, UniProt P21796); settings: Probe; protein VDAC1 P21796
[6] = molecular target: proteins of HEK293T cells transiently overexpressing caspase-6 (Homo sapiens, UniProt P25705); settings: exp_ref Probe; protein ATP5A1 (P25705); analysis C6
[7] = molecular target: proteins of HEK293T cells transiently overexpressing caspase-6 (Homo sapiens, UniProt P27694); settings: Probe; protein RPA1 P27694
Chain of proteins of HEK293T cells transiently overexpressing caspase-6 (Homo sapiens, UniProt P27694) (P27694 whole entry): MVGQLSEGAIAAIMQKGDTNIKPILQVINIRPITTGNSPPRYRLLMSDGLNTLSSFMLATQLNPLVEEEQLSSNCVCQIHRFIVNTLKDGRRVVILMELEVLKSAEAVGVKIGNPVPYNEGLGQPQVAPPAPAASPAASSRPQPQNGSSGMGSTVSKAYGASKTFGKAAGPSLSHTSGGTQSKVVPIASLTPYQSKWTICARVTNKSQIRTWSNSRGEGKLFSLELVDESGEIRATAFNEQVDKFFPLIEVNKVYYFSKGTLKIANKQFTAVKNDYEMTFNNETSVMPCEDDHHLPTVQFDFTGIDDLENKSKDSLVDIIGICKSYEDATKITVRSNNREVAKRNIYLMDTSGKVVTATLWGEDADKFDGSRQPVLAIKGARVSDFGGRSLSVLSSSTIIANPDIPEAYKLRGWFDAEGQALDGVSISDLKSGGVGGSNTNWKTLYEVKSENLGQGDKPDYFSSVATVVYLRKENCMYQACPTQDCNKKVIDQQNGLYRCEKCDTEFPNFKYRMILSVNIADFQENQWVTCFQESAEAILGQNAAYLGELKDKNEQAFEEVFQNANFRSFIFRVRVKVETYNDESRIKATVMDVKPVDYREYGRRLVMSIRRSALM

[8] = molecular target: proteins of HEK293T cells transiently overexpressing caspase-6 (Homo sapiens, UniProt P34897); settings: Probe; protein SHMT2 P34897
[9] = molecular target: proteins of HEK293T cells transiently overexpressing caspase-6 (Homo sapiens, UniProt P39023); settings: exp_ref Probe; protein RPL3 (P39023); analysis C6
[10] = molecular target: proteins of HEK293T cells transiently overexpressing caspase-6 (Homo sapiens, UniProt P49023); settings: Probe; protein PXN P49023
Chain of proteins of HEK293T cells transiently overexpressing caspase-6 (Homo sapiens, UniProt P49023) (P49023 whole entry): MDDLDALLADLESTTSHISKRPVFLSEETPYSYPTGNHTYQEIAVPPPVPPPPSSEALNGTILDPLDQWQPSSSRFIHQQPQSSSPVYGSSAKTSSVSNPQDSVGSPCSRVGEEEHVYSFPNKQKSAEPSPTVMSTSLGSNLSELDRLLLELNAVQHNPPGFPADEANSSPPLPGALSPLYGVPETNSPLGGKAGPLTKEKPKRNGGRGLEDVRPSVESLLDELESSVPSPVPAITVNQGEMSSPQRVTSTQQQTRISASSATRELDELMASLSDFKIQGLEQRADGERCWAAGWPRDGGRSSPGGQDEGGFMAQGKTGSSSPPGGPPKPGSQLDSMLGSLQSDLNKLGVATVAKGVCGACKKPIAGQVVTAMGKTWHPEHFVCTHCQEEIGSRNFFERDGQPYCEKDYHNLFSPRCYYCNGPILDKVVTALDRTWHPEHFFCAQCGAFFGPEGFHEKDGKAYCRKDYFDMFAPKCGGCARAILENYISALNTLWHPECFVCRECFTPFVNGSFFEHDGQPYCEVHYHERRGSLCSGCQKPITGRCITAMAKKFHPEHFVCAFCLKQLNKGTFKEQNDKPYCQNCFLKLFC

[11] = molecular target: proteins of HEK293T cells transiently overexpressing caspase-6 (Homo sapiens, UniProt P49368); settings: exp_ref Probe; protein CCT3 (P49368); analysis C6
Chain of proteins of HEK293T cells transiently overexpressing caspase-6 (Homo sapiens, UniProt P49368) (P49368 whole entry): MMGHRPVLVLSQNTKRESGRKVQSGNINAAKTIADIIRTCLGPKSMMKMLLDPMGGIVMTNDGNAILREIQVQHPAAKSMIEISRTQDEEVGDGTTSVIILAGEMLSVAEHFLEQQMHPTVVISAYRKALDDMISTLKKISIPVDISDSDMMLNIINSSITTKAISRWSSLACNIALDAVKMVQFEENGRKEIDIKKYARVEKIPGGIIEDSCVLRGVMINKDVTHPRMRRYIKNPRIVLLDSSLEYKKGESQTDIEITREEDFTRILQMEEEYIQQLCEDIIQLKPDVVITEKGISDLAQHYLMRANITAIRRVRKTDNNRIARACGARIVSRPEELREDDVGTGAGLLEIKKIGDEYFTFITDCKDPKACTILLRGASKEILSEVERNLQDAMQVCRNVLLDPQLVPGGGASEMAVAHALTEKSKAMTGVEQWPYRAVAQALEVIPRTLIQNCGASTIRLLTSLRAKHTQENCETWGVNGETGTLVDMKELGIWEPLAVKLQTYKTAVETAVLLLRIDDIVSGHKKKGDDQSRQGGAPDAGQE

[12] = molecular target: proteins of HEK293T cells transiently overexpressing caspase-6 (Homo sapiens, UniProt P61981); settings: Probe; protein YWHAG P61981
[13] = molecular target: proteins of HEK293T cells transiently overexpressing caspase-6 (Homo sapiens, UniProt P62241); settings: exp_ref Probe; protein RPS8 (P62241); analysis C6
[14] = molecular target: proteins of HEK293T cells transiently overexpressing caspase-6 (Homo sapiens, UniProt Q12906); settings: exp_ref Probe; protein ILF3 (Q12906); analysis C6
Chain of proteins of HEK293T cells transiently overexpressing caspase-6 (Homo sapiens, UniProt Q12906) (Q12906 whole entry): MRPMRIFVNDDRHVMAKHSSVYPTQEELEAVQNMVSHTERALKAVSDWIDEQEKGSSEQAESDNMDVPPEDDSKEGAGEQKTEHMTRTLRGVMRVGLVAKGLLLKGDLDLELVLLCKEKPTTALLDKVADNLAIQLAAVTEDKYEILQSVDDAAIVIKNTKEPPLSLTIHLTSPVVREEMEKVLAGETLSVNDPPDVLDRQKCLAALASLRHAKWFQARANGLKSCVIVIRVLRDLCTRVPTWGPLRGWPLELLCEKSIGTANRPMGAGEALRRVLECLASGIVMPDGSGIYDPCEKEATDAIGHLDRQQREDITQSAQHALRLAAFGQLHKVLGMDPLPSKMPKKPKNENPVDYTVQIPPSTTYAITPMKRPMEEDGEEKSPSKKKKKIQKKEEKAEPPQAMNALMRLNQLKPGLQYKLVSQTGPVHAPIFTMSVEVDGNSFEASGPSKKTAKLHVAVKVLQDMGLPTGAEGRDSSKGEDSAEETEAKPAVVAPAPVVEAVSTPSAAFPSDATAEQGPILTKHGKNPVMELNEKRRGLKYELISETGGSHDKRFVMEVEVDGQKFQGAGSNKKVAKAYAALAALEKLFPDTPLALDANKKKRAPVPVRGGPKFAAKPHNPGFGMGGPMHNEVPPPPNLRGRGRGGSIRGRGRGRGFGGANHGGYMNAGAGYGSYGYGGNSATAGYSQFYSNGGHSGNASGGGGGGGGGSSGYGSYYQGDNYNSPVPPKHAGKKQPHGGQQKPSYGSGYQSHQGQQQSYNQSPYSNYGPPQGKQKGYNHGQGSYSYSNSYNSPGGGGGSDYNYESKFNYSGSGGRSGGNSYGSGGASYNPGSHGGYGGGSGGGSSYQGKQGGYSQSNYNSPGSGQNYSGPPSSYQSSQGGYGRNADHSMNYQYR

[15] = molecular target: proteins of HEK293T cells transiently overexpressing caspase-6 (Homo sapiens, UniProt Q13263); settings: protein TRIM28 (Q13263)
Chain of proteins of HEK293T cells transiently overexpressing caspase-6 (Homo sapiens, UniProt Q13263) (Q13263 whole entry): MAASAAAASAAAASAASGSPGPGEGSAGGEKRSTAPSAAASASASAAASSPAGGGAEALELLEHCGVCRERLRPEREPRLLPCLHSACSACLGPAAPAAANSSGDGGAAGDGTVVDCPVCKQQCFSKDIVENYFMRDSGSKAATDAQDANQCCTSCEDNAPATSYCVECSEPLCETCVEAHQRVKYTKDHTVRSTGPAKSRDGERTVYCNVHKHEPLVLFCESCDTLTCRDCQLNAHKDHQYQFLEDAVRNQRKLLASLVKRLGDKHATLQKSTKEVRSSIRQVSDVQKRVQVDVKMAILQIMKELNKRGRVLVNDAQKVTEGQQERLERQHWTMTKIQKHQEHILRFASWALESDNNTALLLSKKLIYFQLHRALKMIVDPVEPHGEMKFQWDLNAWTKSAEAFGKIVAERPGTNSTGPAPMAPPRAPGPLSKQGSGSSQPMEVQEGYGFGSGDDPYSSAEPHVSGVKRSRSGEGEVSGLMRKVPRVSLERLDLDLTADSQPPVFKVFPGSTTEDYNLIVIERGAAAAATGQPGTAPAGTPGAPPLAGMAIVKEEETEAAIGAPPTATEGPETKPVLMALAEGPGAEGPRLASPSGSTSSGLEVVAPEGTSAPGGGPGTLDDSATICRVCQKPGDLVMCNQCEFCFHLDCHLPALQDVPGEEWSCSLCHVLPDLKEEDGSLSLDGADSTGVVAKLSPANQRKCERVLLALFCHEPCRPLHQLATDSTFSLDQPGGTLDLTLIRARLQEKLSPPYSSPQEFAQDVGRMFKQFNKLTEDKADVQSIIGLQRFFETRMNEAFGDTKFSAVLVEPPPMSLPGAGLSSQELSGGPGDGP

[16] = molecular target: proteins of HEK293T cells transiently overexpressing caspase-6 (Homo sapiens, UniProt Q8IWS0); settings: exp_ref Probe; protein PHF6 (Q8IWS0); analysis C6
Chain of proteins of HEK293T cells transiently overexpressing caspase-6 (Homo sapiens, UniProt Q8IWS0) (Q8IWS0 whole entry): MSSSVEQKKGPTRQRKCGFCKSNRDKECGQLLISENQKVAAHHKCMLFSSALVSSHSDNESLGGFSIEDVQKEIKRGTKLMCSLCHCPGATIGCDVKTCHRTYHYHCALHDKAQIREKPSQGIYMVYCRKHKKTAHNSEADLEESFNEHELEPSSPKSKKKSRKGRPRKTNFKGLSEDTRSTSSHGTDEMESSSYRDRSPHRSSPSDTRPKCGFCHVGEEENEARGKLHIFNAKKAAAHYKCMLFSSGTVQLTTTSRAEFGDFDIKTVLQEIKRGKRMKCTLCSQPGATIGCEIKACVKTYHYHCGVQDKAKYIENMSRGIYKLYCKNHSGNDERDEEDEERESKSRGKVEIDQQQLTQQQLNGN

[17] = molecular target: proteins of HEK293T cells transiently overexpressing caspase-6 (Homo sapiens, UniProt Q99729); settings: Probe; protein HNRNPAB Q99729

Chain of proteins of HEK293T cells transiently overexpressing caspase-6 (Homo sapiens, UniProt P07437) (P07437 whole entry): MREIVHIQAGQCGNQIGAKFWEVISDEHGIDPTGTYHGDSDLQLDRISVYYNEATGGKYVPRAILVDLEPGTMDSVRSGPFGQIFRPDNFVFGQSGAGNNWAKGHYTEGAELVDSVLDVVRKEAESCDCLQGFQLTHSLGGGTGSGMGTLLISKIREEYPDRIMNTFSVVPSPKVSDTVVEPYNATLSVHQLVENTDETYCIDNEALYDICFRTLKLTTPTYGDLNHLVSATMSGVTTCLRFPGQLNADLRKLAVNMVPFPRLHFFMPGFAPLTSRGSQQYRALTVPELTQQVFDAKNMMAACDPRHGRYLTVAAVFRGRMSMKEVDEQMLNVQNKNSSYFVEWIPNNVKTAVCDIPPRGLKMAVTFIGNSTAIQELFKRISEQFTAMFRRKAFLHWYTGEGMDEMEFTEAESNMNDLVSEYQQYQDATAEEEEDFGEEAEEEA

Question: Which enrich.exp.med ([1]; exp_ref Probe, analysis C6) does the source give for `C#CCOc1ccc([C@@H]2C[C@@H](C(=O)Nc3ccc(OC(F)(F)F)cc3)CN(S(=O)(=O)C=C)C2)cc1` (relative stereo) [13-t] here?
Answer: 1.184

Question: What about the enrich.exp.med.lin [1] of the same molecule?
Answer: 2.273

Question: And the enrich.exp.med.log2 [1]?
Answer: 1.184

Question: What about the enrich.exp.med [2] of the same molecule?
Answer: 0.866

Question: And the enrich.exp.med ([3]; Probe, protein PC P11498)?
Answer: -2.146

Question: What about the enrich.exp.med.lin ([3]; protein PC (P11498)) of the same molecule?
Answer: 0.2259

Question: And the enrich.exp.med.log2 ([3]; protein PC (P11498))?
Answer: -2.146

Question: And the enrich.exp.med [4]?
Answer: 0.7997

Question: And the enrich.exp.med [5]?
Answer: -1.18

Question: And the enrich.exp.med [6]?
Answer: -0.052

Question: What about the enrich.exp.med [7] of the same molecule?
Answer: -1.323

Question: And the enrich.exp.med [8]?
Answer: -2.762

Question: What about the enrich.exp.med [9] of the same molecule?
Answer: -0.06221

Question: And the enrich.exp.med [10]?
Answer: -1.7768

Question: And the enrich.exp.med [11]?
Answer: 0.6394

Question: And the enrich.exp.med [12]?
Answer: -1.712

Question: What about the enrich.exp.med [13] of the same molecule?
Answer: 0.3889

Question: What about the enrich.exp.med [14] of the same molecule?
Answer: 0.1427

Question: What about the enrich.exp.med ([15]; exp_ref Probe, analysis C6) of the same molecule?
Answer: 0.8833

Question: And the enrich.exp.med.lin [15]?
Answer: 1.845

Question: And the enrich.exp.med.log2 [15]?
Answer: 0.8833

Question: And the enrich.exp.med [16]?
Answer: 1.065

Question: What about the enrich.exp.med [17] of the same molecule?
Answer: -0.4603
